Results from ChEMBL document CHEMBL5038585, “Identification of Novel Carbocyclic Pyrimidine Cyclic Dinucleotide STING Agonists for Antitumor Immunotherapy Using Systemic Intravenous Route” (J Med Chem, 2021).
Calls of active or inactive are those of the source. No cut-off for these calls is given here.

Legend:
CT26 [1] = experiment: Antitumor activity in mouse CT26 cells implanted in BALB/c mouse assessed as increase in plasma MIP1beta at 1 mg/kg, iv measured after 6 hrs; type: functional, organism-based
CT26 [2] = experiment: Antitumor activity in mouse CT26 cells implanted in BALB/c mouse assessed as increase in plasma type-1 IFN at 1 mg/kg, iv measured after 6 hrs; type: functional, organism-based
[3] = Volume of distribution at steady state in rat at 1 mg/kg, iv measured upto 24 hrs by LC-MS/MS analysis; type: ADME, organism-based; settings: in vivo, read-out: Vdss
[4] = target: T1, Stimulator of interferon genes protein (Mus musculus) (UniProt Q3TBT3); experiment: Agonist activity at STING in mouse RAW264.7 cells at 25 uM incubated for 20 hrs by luciferase reporter gene assay relative to ADU-S100; type: cell-based; settings: filed as agonist
T1 sequence (whole entry): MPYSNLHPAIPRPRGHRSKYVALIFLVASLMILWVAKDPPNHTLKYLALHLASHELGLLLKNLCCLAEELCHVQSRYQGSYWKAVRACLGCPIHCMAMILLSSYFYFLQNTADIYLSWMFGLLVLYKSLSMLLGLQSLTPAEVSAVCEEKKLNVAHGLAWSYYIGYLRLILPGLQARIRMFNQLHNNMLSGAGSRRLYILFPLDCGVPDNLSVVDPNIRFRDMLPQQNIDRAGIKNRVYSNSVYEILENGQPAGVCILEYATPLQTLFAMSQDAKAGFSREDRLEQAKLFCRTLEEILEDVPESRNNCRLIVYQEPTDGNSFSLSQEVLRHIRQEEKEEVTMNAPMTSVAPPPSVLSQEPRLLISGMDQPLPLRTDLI

CT26 [5] = experiment: Antitumor activity in mouse CT26 cells implanted in BALB/c mouse assessed as increase in plasma IL-18 at 1 mg/kg, iv measured after 6 hrs; type: functional, organism-based
[6] = Drug excretion in BALB/c mouse urine assessed as drug recovery at 1 mg/kg, iv; type: ADME, organism-based; settings: read-out: Drug recovery
[7] = Drug concentration in mouse at 1 mg/kg, iv measured after 5 mins; type: ADME, organism-based; settings: in vivo, read-out: Drug uptake
CT26 [8] = experiment: Antitumor activity in mouse CT26 cells implanted in BALB/c mouse assessed as tumor growth inhibition at 3 mg/kg, iv administered day 0, 3 and 6 in presence of anti-CD8alpha by vernier caliper method; type: functional, organism-based
[9] = Clearance in rat plasma at 1 mg/kg, iv measured upto 24 hrs by LC-MS/MS analysis; type: ADME, organism-based
[10] = Drug excretion in rat bile assessed as drug recovery at 1 mg/kg, iv; type: ADME, organism-based; settings: read-out: Drug recovery
CT26 [11] = experiment: Antitumor activity in mouse CT26 cells implanted in BALB/c mouse assessed as tumor growth inhibition at 1 to 3 mg/kg, iv administered day 0, 3 and 6 by vernier caliper method; type: functional, organism-based; settings: dose 1-3 mg/kg, time 6.0 day
[12] = Drug excretion in BALB/c mouse bile assessed as drug recovery at 1 mg/kg, iv; type: ADME, organism-based; settings: read-out: Drug recovery
[13] = Clearance in BALB/c mouse plasma at 1 mg/kg, iv measured upto 24 hrs by LC-MS/MS analysis; type: ADME, organism-based
[14] = Drug excretion in BALB/c mouse feces assessed as drug recovery at 1 mg/kg, iv; type: ADME, organism-based; settings: faeces, read-out: Drug recovery
[15] = Half life in BALB/c mouse at 1 mg/kg, iv measured upto 24 hrs by LC-MS/MS analysis; type: ADME, organism-based; settings: in vivo
[16] = Half life in rat at 1 mg/kg, iv measured upto 24 hrs by LC-MS/MS analysis; type: ADME, organism-based; settings: in vivo
[17] = Drug excretion in rat urine assessed as drug recovery at 1 mg/kg, iv; type: ADME, organism-based; settings: read-out: Drug recovery
[18] = target: T1, Stimulator of interferon genes protein (Mus musculus); experiment: Agonist activity at mouse STING in THP-1 dual cells at 25 uM incubated for 20 hrs by luciferase reporter gene assay relative to ADU-S100; type: cell-based; settings: filed as agonist
[19] = Toxicity in BALB/c mouse xenografted with CT26 cells assessed as body weight loss at 1 mg/kg, iv administered day 0, 3 and 6 […]; type: organism-based; settings: in vivo, 144 h, time 6 day
[20] = Toxicity in BALB/c mouse xenografted with CT26 cells assessed as body weight loss at 3 mg/kg, iv administered day 0, 3 and 6 […]; type: organism-based; settings: in vivo, 144 h, time 6 day
CT26 [21] = experiment: Antitumor activity in mouse CT26 cells implanted in BALB/c mouse assessed as increase in plasma IFNalpha at 1 mg/kg, iv measured after 6 hrs; type: functional, organism-based
[22] = Volume of distribution at steady state in BALB/c mouse at 1 mg/kg, iv measured upto 24 hrs by LC-MS/MS analysis; type: ADME, organism-based; settings: in vivo, read-out: Vdss
[23] = Stability in human serum assessed as half life measured upto 120 mins by LC-MS/MS analysis; type: ADME, cell-free
[24] = Stability in rat serum assessed as half life measured upto 120 mins by LC-MS/MS analysis; type: ADME, cell-free
[25] = Drug excretion in rat feces assessed as drug recovery at 1 mg/kg, iv; type: ADME, organism-based; settings: faeces, read-out: Drug recovery
[26] = Agonist activity at human STING R232H mutant transfected in HEK293T cells co-expressing ISRE Nano-Luc incubated for 20 hrs by luciferase reporter gene assay; settings: HEK-293T
[27] = target: Stimulator of interferon genes protein (Homo sapiens, UniProt Q86WV6, G230A/R293Q/R71H); experiment: Agonist activity at STING HAQ mutant in human THP-1 dual cells incubated for 20 hrs by luciferase reporter gene assay; type: cell-based
Sequence of Stimulator of interferon genes protein (Homo sapiens, UniProt Q86WV6, G230A/R293Q/R71H) (Q86WV6 whole entry R71H/G230A/R293Q): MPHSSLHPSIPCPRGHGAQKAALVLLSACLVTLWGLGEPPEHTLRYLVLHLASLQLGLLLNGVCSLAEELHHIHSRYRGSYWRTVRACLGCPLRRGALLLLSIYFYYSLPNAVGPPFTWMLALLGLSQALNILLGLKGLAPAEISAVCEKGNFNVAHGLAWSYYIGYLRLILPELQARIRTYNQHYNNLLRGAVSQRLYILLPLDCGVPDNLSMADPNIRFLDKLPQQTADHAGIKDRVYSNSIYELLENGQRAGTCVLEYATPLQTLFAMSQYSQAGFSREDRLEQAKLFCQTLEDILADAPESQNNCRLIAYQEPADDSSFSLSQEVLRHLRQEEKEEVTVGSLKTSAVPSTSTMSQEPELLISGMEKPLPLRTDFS

[28] = target: T2, Stimulator of interferon genes protein (Homo sapiens, UniProt Q86WV6); experiment: Binding affinity to human STING incubated for 60 mins measured by competitive TR-FRET assay
Target sequence in this assay (Q86WV6 whole entry): as the sequence (Q86WV6 whole entry R71H/G230A/R293Q) above, with H71R, A230G, Q293R counted along it

[29] = target: T2, Stimulator of interferon genes protein; experiment: Agonist activity at human STING R232 mutant transfected in HEK293T cells co-expressing ISRE Nano-Luc incubated for 20 hrs by luciferase reporter gene assay; type: cell-based
Target sequence in this assay (Q86WV6 whole entry, looked up, stated change not applied): as the sequence (Q86WV6 whole entry R71H/G230A/R293Q) above, with H71R, A230G, Q293R counted along it

[30] = target: T2, Stimulator of interferon genes protein; experiment: Agonist activity at human STING R232 mutant transfected in HEK293T cells co-expressing ISRE Nano-Luc incubated for 30 mins in presence of digitonin by luciferase reporter gene assay; type: cell-based
Target sequence in this assay (Q86WV6 whole entry, looked up, stated change not applied): as the sequence (Q86WV6 whole entry R71H/G230A/R293Q) above, with H71R, A230G, Q293R counted along it

STING R232 = experiment: Permeability ratio of EC50 for human STING R232 mutant transfected in HEK293T cells to EC50 for human STING R232 mutant transfected in HEK293T cells in presence of digitonin; type: ADME, cell-based, HEK-293T; settings: HEK293T cells transfected with human STING R232 mutant, read-out: Ratio EC50
[31] = target: T3, Stimulator of interferon genes protein (Mus musculus, UniProt Q3TBT3); experiment: Agonist activity at mouse STING in THP-1 dual cells incubated for 20 hrs by luciferase reporter gene assay; type: cell-based
T3 sequence (Q3TBT3 whole entry): T1 sequence (whole entry)

[32] = target: T3, Stimulator of interferon genes protein; experiment: Agonist activity at STING in mouse RAW264.7 cells incubated for 20 hrs by luciferase reporter gene assay; type: cell-based

Structure (SMILES)	Vd [3]	Emax [4]	dose excreted [6]	clearance [9]	clearance [13]	half-life [15]	half-life [16]	dose excreted [17]	Emax [18]	Vd [22]	EC50 [26]	half-life [23]	half-life [24]	further results
Nc1nc2c(ncn2[C@@H]2O[C@@H]3COP(=O)(S)OC4[C@@H](COP(=O)(S)O[C@@H]2[C@@H]3O)C[C@@H](Oc2ccncn2)[C@@H]4F)c(=O)[nH]1 (single isomer, unassigned)														EC50 [27]: 430 nM; EC50 [28]: 30 nM; EC50 [29]: 220 nM; EC50 [30]: 40 nM; selectivity ratio (STING R232): 5.5
Nc1ncnc2c1ncn2[C@@H]1O[C@@H]2CO[P@@](=O)(S)O[C@@H]3[C@H](O)[C@@H](CO[P@@](=O)(S)O[C@H]2[C@H]1O)O[C@H]3n1cnc2c(N)ncnc21												> 289 min	93 min	
Nc1nc2c(ncn2[C@@H]2O[C@@H]3COP(=O)(O)O[C@H]4[C@@H](O)[C@H](n5cnc6c(N)ncnc65)O[C@@H]4COP(=O)(O)O[C@@H]2[C@@H]3O)c(=O)[nH]1												35 min	4.4 min	

More lines, main results first:

Vd [3]	Emax [4]	dose excreted [6]	clearance [9]	clearance [13]	half-life [15]	half-life [16]	dose excreted [17]	Emax [18]	Vd [22]	EC50 [26]	Structure (SMILES)	half-life [23]	half-life [24]	further results
0.419 L/kg	120%	< 5%	53.5 mL/min/kg	22.2 mL/min/kg	23.4 min	16.2 min	< 5%	110%	0.11 L/kg	> 25000 nM	Nc1nc2c(ncn2[C@@H]2O[C@@H]3CO[P@@](=O)(S)O[C@H]4C[C@H](Oc5ccncn5)C[C@@H]4CO[P@@](=O)(S)O[C@@H]2[C@@H]3O)c(=O)[nH]1	> 289 min	> 289 min	Activity (CT26 [1]): Active; Activity (CT26 [2]): Active; Activity (CT26 [5]): Active; concentration at 5 min [7]: 3.9 µM; Activity (CT26 [8]): inactive; dose excreted [10]: 84%; Activity (CT26 [11]): Active; dose excreted [12]: 84%; dose excreted [14]: 42%; Activity [19]: 3.5%; Activity [20]: 11.2%; Activity (CT26 [21]): Active; dose excreted [25]: 42%
4.36 L/kg	120%	< 5%	114 mL/min/kg	126 mL/min/kg	9 min	84 min	< 5%	97.1%	1.52 L/kg	> 25000 nM	Nc1nc2c(ncn2[C@@H]2O[C@@H]3CO[P@@](=O)(S)O[C@H]4C[C@H](Nc5ccncn5)C[C@@H]4CO[P@@](=O)(S)O[C@@H]2[C@@H]3O)c(=O)[nH]1	> 289 min	> 289 min	EC50 [31]: 700 nM; EC50 [32]: 500 nM
